Data on one compound can be found in patent publication US20250333370A1, “METHOD FOR EXTRACTING 3,5-O-DICAFFEOYLQUINIC ACID FROM HUANGSHAN GONGJU AND ITS APPLICATION IN DRUGS FOR PROTECTING AGAINST ALCOHOLIC LIVER DAMAGE” (Hefei University of Technology, priority 2024, published 2025).

For one data set, the system named is AML-12 cells. The experiment in a line: MTT cell survival, toxic effect of 3,5-O-dicaffeoylquinic acid on cells. To be noted: for cell survival rate: AML-12 cells, 24 hours, MTT. The data set is classed as cell-based, mouse. On the procedure:
AML-12 cells, mouse normal liver cells; 3-(4,5-dimethylthiazol-2-yl)-2,5-diphenyl-2H-tetrazolium-3-bromide (MTT), dimethyl sulfoxide (DMSO), reactive oxygen species (ROS) kit, superoxide dismutase (SOD) kit, malondialdehyde (MDA) kit, glutathione (GSH) kit; high-speed centrifuge, microplate reader, etc.
Logarithmically growing AML-12 cells are seeded into 96-well plates at a density of 0.8×10^5 cells/mL, and 100 μL of cell suspension is added to each well and incubated for 24 hours. In an alcohol treatment group, alcohol (0-1600 mM, DMEM dilution) is added to the incubator for 24 hours. In a 3,5-O-dicaffeoylquinic acid treatment group, 100 μL of 3,5-O-dicaffeoylquinic acid (100-1600 μg/mL, DMEM dilution) is added to the incubator for 24 hours. 120 μL of MTT (1 mg/mL) is added to each well and incubated for 4 h. The reaction solution is discarded; 150 μL DMSO is added, and OD value is measured at a wavelength of 490 nm after shaking for 10 minutes in the dark.

Data set [1] concerns alcohol-damaged AML-12 cells. The data set is described as follows: MTT cell survival, ameliorative effect on cell alcohol damage (260 mM alcohol). In kind it is cell-based, mouse. The settings on record: pretreatment 24 hours, then 260 mM alcohol 24 hours. On the procedure: Log-growing AML-12 cells are collected and digested, and then seeded into a 96-well plate at a density of 0.8×10^5 cells/mL per well. After 24 hours of cell proliferation, the control (and model) group is incubated with 100 μL of medium for 48 hours; the 3,5-O-dicaffeoylquinic acid treatment group is incubated with different concentrations of 3,5-O-dicaffeoylquinic acid for 24 hours, and the original medium is discarded; the cells (in model and drug treated group) are incubated in 100 μL of medium containing 260 mM alcohol for 24 hours. The absorbance measurement method is the same as the item 2 above.
Cell survival rate is calculated using the following formula: […]

Data set [2] concerns alcohol-induced AML-12 cells. The data set is described as follows: ROS content determination (DCFH-DA, fluorescence microscope and flow cytometer). The data set is classed as cell-based, mouse. The settings on record: 260 mM alcohol. The procedure: AML-12 cells are treated with drugs (100, 200, 400 μg/mL) for 24 h, and then treated with 260 mM alcohol for 24 h. After trypsin digestion and PBS washing, the probe from the ROS kit is added. First, incubation is conducted with 1 mL of DCFH-DA (diluted in serum-free DMEM) at 37° C. for 20 min. The supernatant is discarded after centrifugation, and the remaining is washed three times and resuspended in PBS. 10 μL of the resuspension is observed under a fluorescence microscope, and is further detected under a flow cytometer.
(In general: A flow cytometer gives signals particle by particle.)

For data set [3], the system named is alcohol-induced AML-12 cells. The data set is described as follows: Determination of MDA, SOD, CAT and GSH content (kits). The data set is classed as cell-based, mouse. To be noted: 260 mM alcohol. An excerpt: Excessive ROS in cells can cause oxidative reactions in proteins and unsaturated fatty acids. MDA is the final product of the oxidation of polyunsaturated fatty acids and is a marker of lipid peroxidation in cells, which is widely used in studies on oxidative stress. SOD, CAT, and GSH are important antioxidant enzymes in the body and play an important role in the body's systematic resistance to oxidative stress. […] After trypsin digestion and PBS washing, the MDA, SOD, CAT, and GSH content in the cells are detected according to the guidance of corresponding kits.

The subject of data set [4] is alcohol-induced AML-12 cells. The data set is described as follows: Apoptosis and necrosis after alcohol damage (Hoechst, fluorescence microscope and flow cytometer). The data set is classed as cell-based, mouse. To be noted: 260 mM alcohol. The procedure: AML-12 cells are treated with drugs (100, 200, 400 μg/mL) for 24 h, and then treated with 260 mM alcohol for 24 h. After trypsin digestion and PBS washing, probe from an apoptosis detection kit is added. First, incubation is conducted with 5 μL Hoechst (diluted in PBS) at 0° C. for 20 min. The supernatant is discarded after centrifugation, and the remaining is washed three times and resuspended in PBS. 10 μL of the resuspension is observed under a fluorescence microscope, and is further detected under a flow cytometer.

The conditions of data set [5]: studies have shown; cited from earlier work.
A further data set deals with α-glucosidase. The settings on record: studies have shown; cited from earlier work.
Data set [6] concerns focal cerebral ischemia-reperfusion injury. To be noted: rats; studies have shown; cited from earlier work.
The mark [7] stands for this setting: 400 μg/mL pretreatment, fluorescence microscope.

As for `O=C(C=Cc1ccc(O)c(O)c1)OC1CC(O)(C(=O)O)CC(OC(=O)C=Cc2ccc(O)c(O)c2)C1O` (single isomer, unassigned) [3,5-O-dicaffeoylquinic acid], the cell survival rate result in the data set on AML-12 cells (0-800 μg/mL) is given as “increases significantly”. Besides, the cell survival rate entry in the data set on AML-12 cells (1600 μg/mL, P<0.05) was “decreases significantly”. Besides, the “toxicity to AML-12 cells” value in the data set on AML-12 cells (concentration range of 0-800 μg/mL) is reported as “non-toxic”. In data set [1] (400 μg/mL, highest cell survival rate), the “increase of cell survival rate compared with the model group” value was found to be 19.90%. For the same compound, the “survival rate of alcohol-damaged AML-12 cells compared with model group” value in data set [1] (100-400 g/mL (so in the source)) was “significantly increase”. The “ROS fluorescence intensity of the cells compared to the alcohol-treated group (model group)” value in data set [2] (setting [7]) was “significantly reduces”. Also, the “fluorescence intensity of ROS versus model group, dependence on drug concentration” value in data set [2] (100, 200, 400 μg/mL pretreatment, fluorescence microscope) was “gradually weakens with the increase of drug concentration”. The “ROS peak fluorescence intensity, flow cytometry” value in data set [2] (pretreatment with different concentrations, as the drug concentration increases) is recorded as “shifts significantly to the right”. Moreover, the “MDA content in cells, concentration of best effect” value in data set [3] (200 μg/mL pretreatment) is recorded as “most significant effect”. For the same compound, the GSH content in data set [3] (400 μg/mL pretreatment, increases from 53.39±2.16 mg/g protein) is given as 82.14±1.67 mg/g protein. Moreover, in data set [3] (100-600 μg/mL pretreatment), the “activity of CAT in cells” value was “significantly restore” and the “activity of SOD in cells” value was “significantly restore”. The “MDA content in cells” value in data set [3] (pretreatment at different concentrations) was “significantly reduces”. Moreover, the “fluorescence intensity of apoptosis compared with the alcohol-treated group” value in data set [4] (setting [7]) was “significantly reduces”. Besides, the “cell survival rate (apoptosis/necrosis flow cytometry)” value in data set [4] (pretreatment with different concentrations, with the increase in drug concentration) is listed as “gradually increases”. For the same compound, the antioxidant effects entry in data set [5] is given as “certain antioxidant effects”. Further, the α-glucosidase inhibition entry in the data set with α-glucosidase is “inhibits”. The “focal cerebral ischemia-reperfusion injury” value in data set [6] is recorded as “can mitigate”.
